# Assay results reported in US12667549B2 (DOMPÉ FARMACEUTICI S.P.A., priority 2020, dated 2026).
# Entries after “also recorded” stand apart in the source; their conditions may differ.
# Legend:
# [1] = system: osteoarthritis; settings: prolonged administration; cited from earlier work
# [2] = system: carrageenan-induced rat paw edema; experiment: Inflammatory pain in rats induced by carrageenan intraplantar injection (paw edema); assay type: in vivo, Male Wistar rats; settings: oral capsules 1 h before 1% carrageenan; KL Co-xx 47.1 mg/kg, Gabapentin 20.4 mg/kg, admixture 47.1+20.4 mg/kg; FIGS. 4 and 5
# Source text: Rat chow and tap water were available ad libitum. […] Animal care was in compliance with Italian Legislative Decree (D.L. 116/92) and European Commission Directive (O.J. of E.C. L358/1, 18/12/86) regulations on the protection of laboratory animals. All efforts were made to minimize animal suffering and the number of animals used.
# Edema was expressed as the mean increase in paw volume (ml) relative to control animals.
# [3] = cited from earlier work
# [4] = Plasma and brain levels of Gabapentin after oral administration as capsules; settings: male, Sprague-Dawley, rat, in vivo, 2 capsules
# [5] = in vivo; cited from earlier work
smiles,measurement,setting,value
NCC1(CC(=O)O)CCCCC1 [Gabapentin],start of therapeutic effect in osteoarthritis (duration of administration),[1],3 months
same,"anti-inflammatory effect on carrageenan-evoked edema (paw volume, % inhibition)",[2],less effective; also recorded: little active on inflammatory pain
same,time of utmost level in plasma,[3]; after oral administration,3 to 4 h
same,binding to plasma proteins,[3]; in vivo,does not attach to plasma proteins
same,hepatic metabolism,[3]; in vivo,neither inhibited nor metabolized by hepatic enzymes
same,excretion half-life,[3]; renal excretion,roughly 6 hours
same,Kp at 2 h,[4],0.378
same,side effect: ataxia,[5],13%
same,side effect: dizziness,[5],18%
same,side effect: fatigue,[5],11%
same,side effect: somnolence,[5],20%
